{"source": "patent US7759350B2", "about": "“Pyrimidine carboxamides” (Orchid Research Laboratories Ltd., priority 2005, dated 2010)", "key": {"[1]": {"system": "TNF-α", "test": "In vitro measurement of TNF-α in human PBMC", "assay_type": "cell-based", "settings": "at 1 μM, LPS"}, "[2]": {"target": "T1, purified recombinant COX-2 enzyme (Homo sapiens, UniProt P35354)", "T1 sequence (P35354 18-604)": "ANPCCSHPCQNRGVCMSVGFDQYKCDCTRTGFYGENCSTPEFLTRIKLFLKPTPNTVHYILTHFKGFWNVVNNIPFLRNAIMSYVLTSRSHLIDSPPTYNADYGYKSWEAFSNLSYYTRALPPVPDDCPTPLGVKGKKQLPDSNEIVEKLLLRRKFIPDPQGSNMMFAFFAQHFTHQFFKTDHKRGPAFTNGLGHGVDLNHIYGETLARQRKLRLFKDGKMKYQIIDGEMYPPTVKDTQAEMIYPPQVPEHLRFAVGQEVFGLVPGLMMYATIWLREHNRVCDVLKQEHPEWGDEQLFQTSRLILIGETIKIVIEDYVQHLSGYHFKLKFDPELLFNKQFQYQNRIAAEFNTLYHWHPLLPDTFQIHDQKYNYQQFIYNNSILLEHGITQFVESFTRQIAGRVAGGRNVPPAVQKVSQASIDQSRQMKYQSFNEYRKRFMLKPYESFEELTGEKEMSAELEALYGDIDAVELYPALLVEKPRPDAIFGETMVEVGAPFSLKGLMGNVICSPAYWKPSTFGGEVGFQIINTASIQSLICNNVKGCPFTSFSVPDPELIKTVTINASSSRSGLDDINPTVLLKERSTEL", "test": "COX-2 enzyme based assay", "assay_type": "biochemical", "settings": "Conc. 10 μM", "procedure": "(§1) COX-1 and COX-2 Enzyme Based Assay\n(§2) COX-2 enzyme based assays were carried out to check the inhibitory potential of test compounds on the production of prostaglandin by purified recombinant COX-1/COX-2 enzyme (Proc. Nat. Acad. Sci. USA, 88, 2692-2696, 1991; Clin. Immunoassay 15, 116-120, 1992) In this assay, the potential of the test compound to inhibit the production of prostaglandin either by COX-1 or COX-2 from arachidonic acid (substrate) was measured. This was an enzyme based in-vitro assay to evaluate selective COX inhibition with good reproducibility.\n(§3) Arachidonic acid was converted to PGH2 (Intermediate product) by COX1/COX-2 in presence or absence of the test compound. The reaction was carried out at 37° C. and after 2 minutes it was stopped by adding 1M HCl. Intermediate products PGH2 was converted to a stable Prostanoid product PGF2α by SnCl2 reduction. The amount of PGF2α produced in the reaction was inversely proportional to the COX inhibitory potential of the test compound. The prostanoid product was quantified via enzyme immunoassay (EIA) using a broadly specific antibody that binds to all the major forms of Prostaglandin, using Cayman ELISA kit as per the procedure outlined by the manufacturer Cayman Chemicals, Ann Arbor, USA)."}, "[3]": {"system": "TNF-α", "test": "LPS induced sepsis for measurement of TNF-α inhibition in mice", "assay_type": "in vivo", "settings": "50 mg/kg bw oral; female Swiss albino mice; serum 90 minutes after LPS", "procedure": "LPS Induced Sepsis for Measurement of TNF-α Inhibition in Mice\nThe LPS induced sepsis model in mice was performed as described by Les sekut et al (J Lab Clin Med 1994; 124:813-20). Female Swiss albino mice were selected with their body weights being equivalent within each group. The mice were fasted for 20 hours with free access to water. The mice were dosed orally with the test compound suspended in vehicle containing 0.5% Tween 80 in 0.25% Carboxy-methylcellulose sodium salt. The control mice were administered the vehicle alone. After 30 minutes of oral dosing, the mice were injected with 500 μg of Lipopolysaccharide (Escherichia coli, LPS: B4 from Sigma) in phosphate buffer saline solution into the intraperitoneal cavity of the mice. After 90 minutes of LPS administration, the mice were bled via retro-orbital sinus puncture. Blood samples were stored overnight at 4° C. Serum samples were collected by centrifuging the samples at 4000 rpm for 15 minutes at 4° C. Immediately the serum samples were analysed for TNF-α levels, using commercially available mouse TNF-α ELISA kit (Amersham Biosciences) and assay was performed by the manufacturer instruction."}, "[4]": {"system": "Carrageenan induced paw edema in rat", "test": "Carrageenan induced paw edema test in rat", "assay_type": "in vivo", "settings": "5 mg/kg oral; male wistar rats; 3 hours after carrageenan", "procedure": "Carrageenan Induced Paw Edema Test in Rat\nThe carrageenan paw edema test was performed as described by Winter et al (Proc. Soc. Exp. Biol. Med, 111, 544, 1962). Male wistar rats were selected with body weights equivalent within each group. The rats were fasted for eighteen hours with free access to water. The rats were dosed orally with the test compound suspended in vehicle containing 0.25% carboxymethylcellulose and 0.5% Tween 80. The control rats were administered with vehicle alone. After an hour, the rats were injected with 0.1 ml of 1% Carrageenan solution in 0.9% saline into the sub-plantar surface of the right hind paw. Paw volume was measured using digital plethysmograph before and after 3 hours of carrageenan injection. The average of foot swelling in drug treated animals was compared with that of control animals. Anti-inflammatory activity was expressed as the percentage inhibition of edema compared with control group [Arzneim-Forsch/Drug Res., 43 (I), 1,44-50,1993; Otterness and Bliven, Laboratory Models for Testing NSAIDs, In Non-Steroidal Anti-Inflammatory Drugs, (J. Lombardino, ed. 1985)]."}, "[5]": {"target": "purified recombinant COX-1 enzyme (Homo sapiens, UniProt P23219)", "sequence (P23219 24-599)": "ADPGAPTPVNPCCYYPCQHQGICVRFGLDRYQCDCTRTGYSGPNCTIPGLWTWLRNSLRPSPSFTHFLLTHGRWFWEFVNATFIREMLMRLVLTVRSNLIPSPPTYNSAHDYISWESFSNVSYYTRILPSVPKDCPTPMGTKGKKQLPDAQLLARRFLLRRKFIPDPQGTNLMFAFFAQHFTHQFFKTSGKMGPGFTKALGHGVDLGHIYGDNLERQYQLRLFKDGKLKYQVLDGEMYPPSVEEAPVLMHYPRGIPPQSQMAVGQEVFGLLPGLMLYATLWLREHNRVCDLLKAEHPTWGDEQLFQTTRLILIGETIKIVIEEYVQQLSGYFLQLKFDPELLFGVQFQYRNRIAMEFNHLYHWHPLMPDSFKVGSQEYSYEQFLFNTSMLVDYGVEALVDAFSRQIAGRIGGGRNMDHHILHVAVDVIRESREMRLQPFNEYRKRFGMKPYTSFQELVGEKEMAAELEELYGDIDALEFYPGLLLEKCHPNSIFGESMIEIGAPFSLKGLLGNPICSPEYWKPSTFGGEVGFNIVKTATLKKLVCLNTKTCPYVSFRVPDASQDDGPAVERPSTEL", "test": "COX-1 enzyme based assay", "assay_type": "biochemical", "settings": "Conc. 10 μM", "procedure": "as §1, §2, §3"}}}
{"compound": "CNc1nc(-c2ccncc2)nc(SC)c1C(=O)Nc1ccc(OC)cc1", "note": "[Example 14, N-(4-Methoxyphenyl)-4-(methylamino)-6-(methylthio)-2-pyridin-4-ylpyrimidine-5-carboxamide]", "values": [{"measurement": "inhibition at 1 µM", "setting": "[1]", "result": 36.8, "unit": "%"}, {"measurement": "inhibition at 10 µM", "setting": "[2]", "result": 11.4, "unit": "%"}, {"measurement": "TNF-α Inhibition (%) at 50 mg/kg bw", "setting": "[3]", "result": 18.74, "unit": "%"}, {"measurement": "Inhibition of edema (%) at 5 mg/kg", "setting": "[4]", "result": 31.02, "unit": "%"}, {"measurement": "COX-1 Inhibition (%)", "setting": "[5]", "result": "Not Active"}]}
